Experimental data published in patent US10421755B2, “Salts of aza-bicyclic di-aryl ethers and methods to make them or their precursors” (Novartis AG, priority 2011, dated 2019).

Experiments:
Type in all cases: physicochemical
[1] = Hygroscopicity (moisture gain at relative humidity); parameters: Hygroscopy @ 85% RH: unit not given here; conditions: for moisture gain: at 85% relative humidity (RH); for Hygroscopy @ 85% RH: comparison table, Example 7
[2] = Loss on drying / initial water content; parameters: Initial water content: unit not given here; conditions: for Initial water content: comparison table, Example 7
[3] = Decomposition temperature; parameters: unit not given here; conditions: comparison table, Example 7
[4] = Known multiple solid forms; conditions: comparison table, Example 7
[5] = Stability in buffer solutions and in solid state

Row | Compound | hygroscopicity (in words) [1] | moisture gain [1] | Hygroscopy @ 85% RH [1] | Loss on drying (LOD) of a sample [2] | Initial water content [2] | Decomposition temperature [3] | Known Multiple forms [4] | solid-state stability [5] | stability in buffer solutions ([5]; many buffer solutions, various pH values)
1 | Cc1ccc(-c2ccc(O[C@H]3CN4CCC3CC4)cn2)cc1.O=P(O)(O)O [Form A of the mono-phosphate salt, mono-phosphate salt of (R)-3-(6-(4-methylphenyl)-pyridin-3-yloxy)-1-aza-bicyclo[2.2.2]octane] | slightly hygroscopic | 0.2% | 0.2 | about 0.5% | ~0.5 | 222 | Yes |  | 
2 | Cc1ccc(-c2ccc(O[C@H]3CN4CCC3CC4)cn2)cc1.O=C(O)CCC(=O)O [Form A of the mono-succinate salt, mono-succinate salt of (R)-3-(6-(4-methylphenyl)-pyridin-3-yloxy)-1-aza-bicyclo[2.2.2]octane] |  | 0.3% | 0.3 | about 4.5% | ~4.5 | 222 | Yes |  | 
3 | Cc1ccc(-c2ccc(O[C@H]3CN4CCC3CC4)cn2)cc1.Cl [mono-hydrochloride salt, mono-hydrochloride salt of (R)-3-(6-(4-methylphenyl)-pyridin-3-yloxy)-1-aza-bicyclo[2.2.2]octane] | hygroscopic | about 5% | ~5 | about 5% | ~5 | 262 | Yes |  | 
4 | Cc1ccc(-c2ccc(O[C@H]3CN4CCC3CC4)cn2)cc1.O=C(O)/C=C\C(=O)O [mono-maleate salt, mono-maleate salt of (R)-3-(6-(4-methylphenyl)-pyridin-3-yloxy)-1-aza-bicyclo[2.2.2]octane] | slightly hygroscopic | 0.3% | 0.3 | < 0.03% | <0.1 | 207 | No | good | good stability
5 | Cc1ccc(-c2ccc(O[C@H]3CN4CCC3CC4)cn2)cc1.O=C(O)CC(=O)O [mono-malonate salt, mono-malonate salt of (R)-3-(6-(4-methylphenyl)-pyridin-3-yloxy)-1-aza-bicyclo[2.2.2]octane] | slightly hygroscopic | 1.3% | 1.3 | 0% | ~0 | 148 | No |  | 
